Like-named read-outs stand apart in the source and are kept apart here.
Target: T1, PDGF-receptor beta enzyme comprising the tyrosine kinase domain (Homo sapiens, UniProt P09619)
T1 construct: from amino acid 545 to 1106 of GenBank Access NO: AAA36427
Assay: Inhibition of PDGF-receptor kinase activity (cell-free, PLC1 peptide, 33P Flashplate)
Format: biochemical
Details: for inhibition at 10 µM: compound at 10 uM, read-out: Percent Inhibition @ 10 uM
Experimental: PDGF-R kinase activity was assayed by its ability to phosphorylate one of its target proteins, PLCγ, in a cell-free system, in particular, a PLC1 peptide comprising the tyrosine residue where the phosphorylation occurs was used for the assay.
10× Kinase Buffer (500 mM Tris-HCl pH=8, 100 mM MgCl2, 1 mM Na3VO4); 10 mM DTT (final concentration at 1 mM in assay); 10 mM ATP (final concentration at 5 μM in assay); ^33P-γ-ATP (Cat. No.: NEG/602H. 2000-3000 Ci/mmol) purchased from NEN; Purified, soluble, recombinant PDGF-receptor beta enzyme comprising the tyrosine kinase domain (from amino acid 545 to 1106 of GenBank Access NO: AAA36427 ) at 0.4 mg/mL; Enzyme Dilution Buffer (50 mM Tris-HCl pH=8.0, 0.1% BSA); Wash/Stop Buffer (PBS +100 mM EDTA); NEN Streptavidin Flashplates (Cat. No.: SMP-103) which binds to the biotinylated PLC1 peptide but not the PDGF-R enzyme; PLC1 peptide (Biotin-[…]-Amide) at 1 mM in 50 mM Tris-HCL with pH of 8.0.
Reagents were first mixed according the following regimen:
The above reaction mixture was dispensed into each well of a Flashplate at 70 μl/well. To test the effect of a compound on PDGF-R kinase activity, the test compound either in a fixed concentration or in serially diluted concentrations in 100% DMSO was added to appropriate wells at 1 μl/well.
Enzyme PDGF-R was diluted in Enzyme dilution buffer as following:
The kinase reaction was initiated by adding 30 μl of diluted PDGF-R enzyme solution to each well on the Flashplate containing hot ATP and PLC1, except wells of column 12 rows E through H, which were used to calculate the plate background. The Flashplate was swirled to mix and was incubated at 30° C. for 60 minutes. Then, the reaction mixture was discarded and the Flashplate was washed 3 times each with 200 μl Wash/Stop Buffer. Subsequently, each well on the Flashplate was filled with 200 μl of Wash/Stop buffer. The amount of ^33P retained in each well was measured using a Packard TopCount after the plate was sealed with a transparent plate sealer.
The percentage of inhibition of the test compound on PDGF-R kinase activity is defined as […].
In order to test the potency of inhibition of present compounds, an IC50 for an individual compound was measured using the above procedure. As used herein, the IC50 for PDGF-R kinase activity refers to the concentration of an inhibitor at which the activity of the PDGF-R kinase is reduced by one-half as compared with reactions containing no inhibitor.

[1] = PDGF-R kinase activity, read-out: IC50
[2] = read-out: IC50 (μM) on PDGF-R kinase activity

T1 sequence (P09619 545-1106): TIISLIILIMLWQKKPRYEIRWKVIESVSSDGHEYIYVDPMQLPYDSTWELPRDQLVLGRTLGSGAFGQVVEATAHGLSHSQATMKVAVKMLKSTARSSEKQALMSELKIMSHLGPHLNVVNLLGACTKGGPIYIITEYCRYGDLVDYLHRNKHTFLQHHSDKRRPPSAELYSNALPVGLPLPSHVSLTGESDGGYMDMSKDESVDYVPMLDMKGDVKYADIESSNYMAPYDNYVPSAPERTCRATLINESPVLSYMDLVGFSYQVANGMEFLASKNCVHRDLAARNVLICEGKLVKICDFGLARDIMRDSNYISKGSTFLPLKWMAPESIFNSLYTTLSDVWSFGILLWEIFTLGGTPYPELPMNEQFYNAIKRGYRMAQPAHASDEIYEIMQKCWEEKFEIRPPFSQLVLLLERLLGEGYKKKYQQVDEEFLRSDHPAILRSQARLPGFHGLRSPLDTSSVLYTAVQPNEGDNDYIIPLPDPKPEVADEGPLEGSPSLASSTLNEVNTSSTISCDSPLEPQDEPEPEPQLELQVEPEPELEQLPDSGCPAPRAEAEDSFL

## CC(C)Oc1cc2c(cc1OC(C)C)-c1n[nH]c(Nc3cccc(F)c3)c1C2 [Compound 169, (6,7-Diisopropoxy-2,4-dihydro-indeno[1,2-c]pyrazol-3-yl)-(3-fluoro-phenyl)-amine]
PDGF-R kinase activity
  inhibition at 10 µM: 89%
[1]
  IC50: 0.036 µM

## COc1ccc(Nc2[nH]nc3c2Cc2c(OC)cccc2-3)cc1 [Compound 145, (5-Methoxy-2,4-dihydro-indeno[1,2-c]pyrazol-3-yl)-(4-methoxy-phenyl)-amine]
PDGF-R kinase activity
  inhibition at 10 µM: 48.5%
[1]
  IC50: 13.9 µM

## FC(F)(F)Oc1ccc(Nc2[nH]nc3c2Cc2cc(Cl)ccc2-3)cc1 [Compound 194, (6-Chloro-2,4-dihydro-indeno[1,2-c]pyrazol-3-yl)-(4-trifluoromethoxy-phenyl)-amine]
PDGF-R kinase activity
  inhibition at 10 µM: 87%
[1]
  IC50: 2.61 µM

## c1ccc(Nc2[nH]nc3c2CCOc2ccccc2-3)cc1 [Compound 318, (4,5-Dihydro-2H-6-oxa-1,2-diaza-benzo[e]azulen-3-yl)-phenyl-amine]
PDGF-R kinase activity
  inhibition at 10 µM: 23%
[1]
  IC50: 34.4 µM

## COc1cc2c(cc1OC)-c1c(c(Nc3cccc(F)c3)nn1C)C2 [Compound 609]
PDGF-R kinase activity
  inhibition at 10 µM: 84%
[2]
  IC50: 4.68 µM

## COc1cc2c(cc1OC)-c1n[nH]c(NCc3cccc(OC)c3OC)c1C2 [Compound 322, (2,3-Dimethoxy-benzyl)-(6,7-dimethoxy-2,4-dihydro-indeno[1,2-c]pyrazol-3-yl)-amine]
PDGF-R kinase activity
  inhibition at 10 µM: 22%
[1]
  IC50: 0.0547 µM

## Fc1ccc2c(c1)Cc1c-2n[nH]c1Nc1ccc(C(F)(F)F)cc1 [Compound 237, (6-Fluoro-2,4-dihydro-indeno[1,2-c]pyrazol-3-yl)-(4-trifluoromethyl-phenyl)-amine]
PDGF-R kinase activity
  inhibition at 10 µM: 88%
[1]
  IC50: 0.05 µM

## COc1cc2c(cc1OC)-c1c(c(Nc3cccc(F)c3)nn1C(=O)NCCN(C)C)C2 [Compound 517, 3-(3-Fluoro-phenylamino)-6,7-dimethoxy-4H-indeno[1,2-c]pyrazole-1-carboxylic acid (2-dimethylamino-ethyl)-amide]
PDGF-R kinase activity
  inhibition at 10 µM: 75.5%
[1]
  IC50: 1.79 µM

## Cc1ccc2c(c1)-c1n[nH]c(Nc3ccc(OC(F)(F)F)cc3)c1C2 [Compound 186, (7-Methyl-2,4-dihydro-indeno[1,2-c]pyrazol-3-yl)-(4-trifluoromethoxy-phenyl)-amine]
PDGF-R kinase activity
  inhibition at 10 µM: 78%
[1]
  IC50: 0.414 µM

## COc1cc2c(cc1OC)-c1n[nH]c(NCc3ccccc3C(F)(F)F)c1C2 [Compound 329, (6,7-Dimethoxy-2,4-dihydro-indeno[1,2-c]pyrazol-3-yl)-(2-trifluoromethyl-benzyl)-amine]
PDGF-R kinase activity
  inhibition at 10 µM: 58%
[1]
  IC50: 0.0762 µM

## Cc1ccc2c(c1)-c1n[nH]c(NCc3ccc(F)c(F)c3)c1C2 [Compound 317, (3,4-Difluoro-benzyl)-(7-methyl-2,4-dihydro-indeno[1,2-c]pyrazol-3-yl)-amine]
PDGF-R kinase activity
  inhibition at 10 µM: 79%
[1]
  IC50: 1.25 µM

## COc1cc2c(cc1OC)-c1n[nH]c(Nc3cccc(C(=O)NCCO)c3)c1C2 [Compound 297, 3-(6,7-Dimethoxy-2,4-dihydro-indeno[1,2-c]pyrazol-3-ylamino)-N-(2-hydroxy-ethyl)-benzamide]
PDGF-R kinase activity
  inhibition at 10 µM: 90.5%
[1]
  IC50: 0.275 µM

## COc1ccc(OC)c2c1Cc1c-2n[nH]c1Nc1ccccc1 [Compound 332, (5,8-Dimethoxy-2,4-dihydro-indeno[1,2-c]pyrazol-3-yl)-phenyl-amine]
PDGF-R kinase activity
  inhibition at 10 µM: 90%
[1]
  IC50: 0.372 µM

## CNC(=O)n1nc2c(c1Nc1cccc(F)c1)Cc1cc(OC)c(OC)cc1-2 [Compound 579, 3-(3-Fluoro-phenylamino)-6,7-dimethoxy-4H-indeno[1,2-c]pyrazole-2-carboxylic acid methylamide]
PDGF-R kinase activity
  inhibition at 10 µM: 28%

## CCOc1cc2c(cc1OCC)-c1n[nH]c(NCc3ccccc3F)c1C2 [Compound 293, (6,7-Diethoxy-2,4-dihydro-indeno[1,2-c]pyrazol-3-yl)-(2-fluoro-benzyl)-amine]
PDGF-R kinase activity
  inhibition at 10 µM: 96.5%
[1]
  IC50: 0.0692 µM

## COc1cc2c(cc1OC)-c1n[nH]c(Nc3ccc(Br)cn3)c1C2 [Compound 583, (5-Bromo-pyridin-2-yl)-(6,7-dimethoxy-2,4-dihydro-indeno[1,2-c]pyrazol-3-yl)-amine]
PDGF-R kinase activity
  inhibition at 10 µM: 82%
[2]
  IC50: 1.1 µM

## CCC(=O)n1nc(Nc2cccc(F)c2)c2c1-c1cc(OC)c(OC)cc1C2 [Compound 430, 1-[3-(3-Fluoro-phenylamino)-6,7-dimethoxy-4H-indeno[1,2-c]pyrazol-1-yl]-propan-1-one]
PDGF-R kinase activity
  inhibition at 10 µM: 61.5%
[1]
  IC50: 0.571 µM

## COc1ccc(Nc2[nH]nc3c2C(C)c2ccccc2-3)c(OC)c1 (stereo not shown) [Compound 111, (2,4-Dimethoxy-phenyl)-(4-methyl-2,4-dihydro-indeno[1,2-c]pyrazol-3-yl)-amine]
PDGF-R kinase activity
  inhibition at 10 µM: 95%
[1]
  IC50: 0.11 µM

## COc1cc2c(cc1OC)C(C)c1c-2n[nH]c1Nc1cc(F)cc(F)c1 (stereo not shown) [Compound 251, (3,5-Difluoro-phenyl)-(6,7-dimethoxy-4-methyl-2,4-dihydro-indeno[1,2-c]pyrazol-3-yl)-amine]
PDGF-R kinase activity
  inhibition at 10 µM: 84%
[1]
  IC50: 0.322 µM

## COc1ccc2c(c1)Cc1c-2n[nH]c1Nc1ccc(OC)c(OC)c1 [Compound 86, (3,4-Dimethoxy-phenyl)-(6-methoxy-2,4-dihydro-indeno[1,2-c]pyrazol-3-yl)-amine]
PDGF-R kinase activity
  inhibition at 10 µM: 57%
[1]
  IC50: 2.53 µM

## COc1ccc(Nc2[nH]nc3c2Cc2cc(OC)c(OC)cc2-3)cc1OC [Compound 49, (6,7-Dimethoxy-2,4-dihydro-indeno[1,2-c]pyrazol-3-yl)-(3,4-dimethoxy-phenyl)-amine]
PDGF-R kinase activity
  inhibition at 10 µM: 72%
[1]
  IC50: 3.07 µM

## COc1cc2c(cc1OC)[C@@H](C)c1c-2n[nH]c1Nc1cccc(Br)c1 [Compound 553, (4R)-N-(3-bromo-phenyl)-(6,7-dimethoxy-4-methyl-2,4-dihydro-indeno[1,2-c]pyrazol-3-yl)-amine]
PDGF-R kinase activity
  inhibition at 10 µM: 99.5%
[1]
  IC50: 0.0065 µM

## O=C1c2ccccc2-c2n[nH]c(Nc3ccccc3)c21 [Compound 35, 3-Phenylamino-2H-indeno[1,2-c]pyrazol-4-one]
PDGF-R kinase activity
  inhibition at 10 µM: 88%
[1]
  IC50: 2.06 µM

## COc1cc2c(cc1OC)-c1c(c(Nc3cccc(F)c3)nn1C(=O)Oc1ccccc1Cl)C2 [Compound 513, 3-(3-Fluoro-phenylamino)-6,7-dimethoxy-4H-indeno[1,2-c]pyrazole-1-carboxylic acid 2-chloro-phenyl ester]
PDGF-R kinase activity
  inhibition at 10 µM: 86%
[1]
  IC50: 0.773 µM

## COCn1nc2c(c1Nc1cccc(F)c1)Cc1cc(OC)c(OC)cc1-2 [Compound 475, (6,7-Dimethoxy-2-methoxymethyl-2,4-dihydro-indeno[1,2-c]pyrazol-3-yl)-(3-fluoro-phenyl)-amine]
PDGF-R kinase activity
  inhibition at 10 µM: 65.5%
[1]
  IC50: 5.03 µM

## CN1CCN(c2ccc3c(c2)Cc2c-3n[nH]c2Nc2ccccc2)CC1 [Compound 64, [6-(4-Methyl-piperazin-1-yl)-2,4-dihydro-indeno[1,2-c]pyrazol-3-yl]-phenyl-amine]
PDGF-R kinase activity
  inhibition at 10 µM: 118%
[1]
  IC50: 0.449 µM

## Fc1ccc(F)c(Nc2[nH]nc3c2Cc2cc(Br)ccc2-3)c1 [Compound 153, (6-Bromo-2,4-dihydro-indeno[1,2-c]pyrazol-3-yl)-(2,5-difluoro-phenyl)-amine]
PDGF-R kinase activity
  inhibition at 10 µM: 79%
[1]
  IC50: 1.03 µM

## COc1cc2c(cc1OC)-c1n[nH]c(Nc3ccc(C)cc3)c1C2 [Compound 33, (6,7-Dimethoxy-2,4-dihydro-indeno[1,2-c]pyrazol-3-yl)-p-tolyl-amine]
PDGF-R kinase activity
  inhibition at 10 µM: 59%
[1]
  IC50: 1.41 µM

## COc1ccc(Nc2[nH]nc3c2C(C)c2ccccc2-3)cc1 (stereo not shown) [Compound 107, (4-Methoxy-phenyl)-(4-methyl-2,4-dihydro-indeno[1,2-c]pyrazol-3-yl)-amine]
PDGF-R kinase activity
  inhibition at 10 µM: 56%
[1]
  IC50: 1.27 µM

## COc1ccc2c(c1)Cc1c-2n[nH]c1Nc1cc(F)ccc1F [Compound 87, (2,5-Difluoro-phenyl)-(6-methoxy-2,4-dihydro-indeno[1,2-c]pyrazol-3-yl)-amine]
PDGF-R kinase activity
  inhibition at 10 µM: 91%
[1]
  IC50: 0.069 µM

## COc1cc2c(cc1OC)C(C)c1c-2n[nH]c1Nc1cccc(OCc2ccccc2)c1 (stereo not shown) [Compound 254, (3-Benzyloxy-phenyl)-(6,7-dimethoxy-4-methyl-2,4-dihydro-indeno[1,2-c]pyrazol-3-yl)-amine]
PDGF-R kinase activity
  inhibition at 10 µM: 89%
[1]
  IC50: 0.181 µM

— patent US7196110B2, “N-substituted tricyclic 3-aminopyrazoles as inhibitors for the treatment of cell proliferative disorders” (Janssen Phamaceutica N.V., priority 2002, dated 2007)
